Assay results published in US9962334B2, “Ophthalmic device having therapeutic agent delivery capability and method of forming same” (Novartis AG, priority 2008, dated 2018).
Marks after values point to notes of the source that are not given here.

Columns and labels:
[1] = cited from earlier work
[2] = cited from earlier work; remark: listed apart in the source
[3] = test system: LEC migration and proliferation; assay: In vitro inhibition of LEC migration and proliferation; format: cell-based; conditions: in vitro studies

## O=C1O[C@H]([C@@H](O)CO)C(O)=C1O [Ascorbic Acid]
[1]
  Exp. Log P/Hydrophobicity: −0.5

## Nc1c(CC(=O)O)cccc1C(=O)c1ccc(Br)cc1 [Bromfenac]
[2]
  Water Solubility: 0.0126 mg/mL

## COc1cc2c(c(OC)c1OC)-c1ccc(OC)c(=O)cc1[C@@H](NC(C)=O)CC2 [Colchicine]
[3]
  concentration as low as which LEC migration and proliferation was inhibited: 0.0005 mg/mL
[1]
  Exp. Log P/Hydrophobicity: 1.3
  log P (PC log P): 1.3

## O=C(O)Cc1ccccc1Nc1c(Cl)cccc1Cl [Diclofenac Sodium]
[1]
  log P (PC log P): 1.1

## O=C(O)Cc1ccccc1Nc1c(Cl)cccc1Cl [Diclofenac]
[2]
  soluble in water up to: up to 50 mg/mL

## O=C(c1ccccc1)c1ccc2n1CCC2C(=O)O (stereo not drawn) [Ketorolac]
[1]
  Exp. Log P/Hydrophobicity: 2.1
[2]
  Water Solubility: 25 mg/mL

## CO[C@@]12[C@H](COC(N)=O)C3=C(C(=O)C(C)=C(N)C3=O)N1C[C@@H]1N[C@@H]12 [Mitomycin-C]
[3]
  concentration as low as which LEC migration and proliferation was inhibited: 0.0005 mg/mL

## NC(=O)Cc1cccc(C(=O)c2ccccc2)c1N [Nepafenac]
[1]
  Exp. Log P/Hydrophobicity: 2.11*
  log P (PC log P): 2.1
